According to patent US7476691B2, “Sulfamate benzothiophene derivatives as steroid sulfatase inhibitors” (Laboratoire Theramex, priority 2003, dated 2009):

How the values were obtained:
estrone sulfatase [1] = biological target: T1, estrone sulfatase (Homo sapiens, UniProt P08842); assay: Estrone sulfatase whole-cell assay on MCF-7 cells; type: cell-based; set-up: Whole-cell assays were performed as originally described by Duncan et al. (Cancer Res., 1993, 53: 298-303) on intact MCF-7 cell monolayers; endogenous in cells; host or cells: MCF-7 (human breast adenocarcinoma), intact monolayers; details: 20 h treatment, 3H-E1S, read-out: IC50 (nM) ± S.E.M., inhibition of estrone sulfatase
T1 sequence (P08842 22-583): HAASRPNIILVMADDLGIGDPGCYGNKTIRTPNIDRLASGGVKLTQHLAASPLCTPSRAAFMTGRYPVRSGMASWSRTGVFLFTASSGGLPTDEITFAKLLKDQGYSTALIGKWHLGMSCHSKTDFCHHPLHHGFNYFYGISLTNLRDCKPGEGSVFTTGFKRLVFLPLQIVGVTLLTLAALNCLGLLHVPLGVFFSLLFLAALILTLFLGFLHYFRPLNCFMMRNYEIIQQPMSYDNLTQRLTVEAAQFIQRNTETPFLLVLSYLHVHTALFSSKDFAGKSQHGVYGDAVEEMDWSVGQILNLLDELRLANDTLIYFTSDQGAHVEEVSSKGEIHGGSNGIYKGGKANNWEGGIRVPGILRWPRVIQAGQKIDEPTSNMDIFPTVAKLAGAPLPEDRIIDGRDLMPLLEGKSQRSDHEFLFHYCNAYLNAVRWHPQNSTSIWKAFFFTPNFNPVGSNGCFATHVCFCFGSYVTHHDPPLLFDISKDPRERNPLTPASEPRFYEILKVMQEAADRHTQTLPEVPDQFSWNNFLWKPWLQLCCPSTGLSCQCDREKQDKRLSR
Method: Two in vitro models on whole cells were used. […] Moreover, these cells were used in the in vivo model of hormono-dependent induced xenografts.
Estrone Sulfatase Assay on Cells
Whole-cell assays were performed as originally described by Duncan et al. (Cancer Res., 1993, 53: 298-303) on intact MCF-7 cell monolayers. Assays were carried out with cells in logarithmic growth phase, on 96-well (JEG-3) or 24-well (MCF-7) microplates. Twenty-four hours (JEG-3) or 72 h (MCF-7) before studies, cells were seeded in decomplemented fetal calf serum (dFCS) supplemented medium. Then, the seeding medium was removed and the cells were rinsed with PBS to eliminate any trace of dFCS. Then, ^3H-E1S was added, followed by test compounds ranging from 10^−12 M to 10^−5 M. After 4 h (JEG-3) or 20 h (MCF-7) of treatment, the medium was transferred into either 96-deep-well microplates (JEG-3) or plastic tubes (MCF-7) and centrifuged at 200×g for 10 min to pellet cells before toluene extraction. A fraction of medium was used for toluene extraction in order to separate conjugated substrate and non-conjugated products. The radioactivity in the toluene phase was measured by liquid scintillation counting (LSC). Finally, estrone sulfatase activity was expressed in pmoles of ^3H-E1+^3H-E2 formed per 4 or 20 hours and per μg DNA and estrone sulfatase inhibition in percentage of control activity without inhibitor.

prepubescent female rats = assay: Residual estrogenic activity in vivo (uterotrophic assay)
Method: These compounds were checked for residual estrogenic activity in vivo in the classical uterotrophic assay after 3-day administration by oral route in prepubescent female rats.
Prepubescent female rats were orally treated at 1 mg/rat/day for 3 days. On the day following the last treatment, uteri were removed and wet weight were recorded.
The results are expressed as % of stimulation of uterus weight in comparison with controls.

[2] = Serum estrogen levels (E1S and E2) in treated rats; type: in vivo, rat; details: 24 h after last administration
Method: (§1) In this study, a last administration was performed 24 hours before the necropsy for E1S and E2 serum levels assays. The uteri were removed, freed of adjacent tissue, wet weighed and immediately deep frozen until the determination of sulfatase activity.
E1S and E2 levels were determined according to the supplier's standard method (DSL, Webster, Tex., USA).

estrone sulfatase [3] = biological target: T2, estrone sulfatase (Rattus norvegicus, UniProt P15589); assay: Estrone sulfatase activity in the uterus of treated rats; type: in vivo
T2 construct: uteri were thawed, weighed and homogenized; from tissue; host or cells: uterus of animals dosed orally (ex vivo homogenate supernatant)
T2 sequence (P15589 20-577): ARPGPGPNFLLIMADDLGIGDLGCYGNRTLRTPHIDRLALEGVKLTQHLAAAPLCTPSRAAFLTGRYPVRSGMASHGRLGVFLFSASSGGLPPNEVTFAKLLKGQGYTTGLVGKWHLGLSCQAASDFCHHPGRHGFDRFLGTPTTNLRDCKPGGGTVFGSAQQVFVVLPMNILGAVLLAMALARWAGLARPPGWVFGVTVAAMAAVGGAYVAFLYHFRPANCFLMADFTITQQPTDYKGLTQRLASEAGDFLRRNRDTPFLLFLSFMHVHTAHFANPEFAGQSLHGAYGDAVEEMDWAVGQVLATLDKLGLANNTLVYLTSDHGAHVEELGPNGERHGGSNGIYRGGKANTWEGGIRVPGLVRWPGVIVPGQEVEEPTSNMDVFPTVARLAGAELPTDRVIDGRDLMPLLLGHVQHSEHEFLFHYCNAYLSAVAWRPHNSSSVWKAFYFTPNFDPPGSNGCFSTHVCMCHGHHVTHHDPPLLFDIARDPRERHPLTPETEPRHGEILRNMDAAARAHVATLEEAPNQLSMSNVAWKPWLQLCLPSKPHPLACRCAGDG
Method: as §1
Estrone sulfatase activity was measured according to the method described by Purohit et al., with slight modifications. Briefly, uteri were thawed, weighed and homogenized. Aliquots of the supernatant were treated with dextran-coated charcoal and assayed for sulfatase. E1S activity was assessed after 30 min of incubation with 5 nM of ^3H-E1S and 20 μM of unlabelled E1S as substrate. Radioactivity was measured by LSC.
Estrone sulfatase activity was expressed as pmol/h/mg protein and reported as percentage of inhibition versus E1S.

steroid sulfatase = biological target: T3, steroid sulfatase (Homo sapiens, UniProt P08842); assay: Xenograft steroid sulfatase activity; type: in vivo, mouse; details: oral 0.1 mg/kg/day for 6 weeks
T3 construct: from tissue; host or cells: MCF-7 xenograft tumour removed from athymic nude mice
T3 sequence (P08842 22-583): T1 sequence (P08842 22-583)
Method: MCF-7 cells, derived from human breast adenocarcinoma, were injected subcutaneously in ovariectomized athymic nude mice supplemented with estrone sulfate (pellets 0.5 mg/90 day release). Xenograft volumes were determined once weekly. When tumor volumes reached a significant increase, 6,6,7 COUMATE and Ex 55 were orally administered at 0.1 mg/kg/day for 6 weeks.
Xenografts were measured, removed, weighed, and deep frozen until the determination of steroid sulfatase activity.

IC50 (estrone sulfatase [1]): 0.05 ± 0.01 nM
% stimulation of uterus weight in comparison with controls (prepubescent female rats; prepubescent female rats, oral, 1 mg/rat/day for 3 days): 3%
estrogenicity (in words) (prepubescent female rats; summary of the uterotrophic assay): lack of estrogenicity
Estrone sulfatase activity in the uterus, percentage of inhibition versus E1S (estrone sulfatase [3]; 0.03 mg/kg/day p.o.): 19%
Estrone sulfatase activity in the uterus, percentage of inhibition versus E1S (estrone sulfatase [3]; 0.1 mg/kg/day p.o.): 64%
Estrone sulfatase activity in the uterus, percentage of inhibition versus E1S (estrone sulfatase [3]; 0.3 mg/kg/day p.o.): 96%
Estrone sulfatase activity in the uterus, percentage of inhibition versus E1S (estrone sulfatase [3]; 1 mg/kg/day p.o.): 97%
melting point: 135 °C
Xenograft steroid sulfatase activity (steroid sulfatase; MCF-7 xenografts): 263 ± 17 pmol/h/mg protein
inhibition at 0.1 mg/kg/day (steroid sulfatase; read-out: inhibition of intratumoral steroid sulfatase activity): 84%
Compound: NS(=O)(=O)Oc1ccc2c(c1)S(=O)(=O)C(CC1CCCCCC1)=C2 [Ex 55, Sulfamic acid, 2-cycloheptylmethyl-benzothiophene-6-yl-1,1-dioxide ester]
E1S levels (serum) ([2]; 0.03 mg/kg/day p.o.): 17 ± 2.5 ng/mL
E2 levels (serum) ([2]; 0.03 mg/kg/day p.o.): 31 ± 2.8 pg/mL
E1S levels (serum) ([2]; 0.1 mg/kg/day p.o.): 21 ± 2.4 ng/mL
E2 levels (serum) ([2]; 0.1 mg/kg/day p.o.): 28 ± 1.3 pg/mL
E1S levels (serum) ([2]; 0.3 mg/kg/day p.o.): 69 ± 5.9 ng/mL
E2 levels (serum) ([2]; 0.3 mg/kg/day p.o.): 22 ± 1.2 pg/mL
E1S levels (serum) ([2]; 1 mg/kg/day p.o.): 83 ± 2.5 ng/mL
E2 levels (serum) ([2]; 1 mg/kg/day p.o.): 15 ± 0.9 pg/mL
